Assay results: ChEMBL document CHEMBL1275437, “Prevalence of serotype 19A Streptococcus pneumoniae among isolates from U.S. children in 2005-2006 and activity of faropenem” (2008)
In brackets after ≈: the same amount, converted by molar mass.

Tests used:
Type in all cases: functional
Streptococcus pneumoniae [1] = assay: Antibacterial activity against Streptococcus pneumoniae serotype 19A by broth microdilution method
Streptococcus pneumoniae [2] = assay: Antibacterial activity against Streptococcus pneumoniae serotype 6A/C by broth microdilution method
Streptococcus pneumoniae [3] = assay: Antibacterial activity against Streptococcus pneumoniae serotype 3 by broth microdilution method
Streptococcus pneumoniae [4] = assay: Antibacterial activity against Streptococcus pneumoniae serotype 19F by broth microdilution method
Streptococcus pneumoniae [5] = assay: Antibacterial activity against Streptococcus pneumoniae serotype 35B by broth microdilution method
Streptococcus pneumoniae [6] = assay: Antibacterial activity against Streptococcus pneumoniae serotype 23A by broth microdilution method
Streptococcus pneumoniae [7] = assay: Antibacterial activity against Streptococcus pneumoniae serotype 15A by broth microdilution method
Streptococcus pneumoniae [8] = assay: Antibacterial activity against Streptococcus pneumoniae serotype 33 by broth microdilution method
Streptococcus pneumoniae [9] = assay: Antibacterial activity against Streptococcus pneumoniae serotype 22 by broth microdilution method
Streptococcus pneumoniae [10] = assay: Antibacterial activity against Streptococcus pneumoniae serotype 19A assessed as percent susceptible isolates by broth microdilution method
Streptococcus pneumoniae [11] = assay: Antibacterial activity against Streptococcus pneumoniae serotype 6A/C assessed as percent susceptible isolates by broth microdilution method
Streptococcus pneumoniae [12] = assay: Antibacterial activity against Streptococcus pneumoniae serotype 3 assessed as percent susceptible isolates by broth microdilution method
Streptococcus pneumoniae [13] = assay: Antibacterial activity against Streptococcus pneumoniae serotype 19F assessed as percent susceptible isolates by broth microdilution method
Streptococcus pneumoniae [14] = assay: Antibacterial activity against Streptococcus pneumoniae serotype 35B assessed as percent susceptible isolates by broth microdilution method
Streptococcus pneumoniae [15] = assay: Antibacterial activity against Streptococcus pneumoniae serotype 23A assessed as percent susceptible isolates by broth microdilution method
Streptococcus pneumoniae [16] = assay: Antibacterial activity against Streptococcus pneumoniae serotype 15A assessed as percent susceptible isolates by broth microdilution method
Streptococcus pneumoniae [17] = assay: Antibacterial activity against Streptococcus pneumoniae serotype 33 assessed as percent susceptible isolates by broth microdilution method
Streptococcus pneumoniae [18] = assay: Antibacterial activity against Streptococcus pneumoniae serotype 22 assessed as percent susceptible isolates by broth microdilution method
Streptococcus pneumoniae [19] = assay: Antibacterial activity against Streptococcus pneumoniae serotype 19A assessed as percent resistant isolates by broth microdilution method
Streptococcus pneumoniae [20] = assay: Antibacterial activity against Streptococcus pneumoniae serotype 6A/C assessed as percent resistant isolates by broth microdilution method
Streptococcus pneumoniae [21] = assay: Antibacterial activity against Streptococcus pneumoniae serotype 3 assessed as percent resistant isolates by broth microdilution method
Streptococcus pneumoniae [22] = assay: Antibacterial activity against Streptococcus pneumoniae serotype 19F assessed as percent resistant isolates by broth microdilution method
Streptococcus pneumoniae [23] = assay: Antibacterial activity against Streptococcus pneumoniae serotype 35B assessed as percent resistant isolates by broth microdilution method
Streptococcus pneumoniae [24] = assay: Antibacterial activity against Streptococcus pneumoniae serotype 23A assessed as percent resistant isolates by broth microdilution method
Streptococcus pneumoniae [25] = assay: Antibacterial activity against Streptococcus pneumoniae serotype 15A assessed as percent resistant isolates by broth microdilution method
Streptococcus pneumoniae [26] = assay: Antibacterial activity against Streptococcus pneumoniae serotype 33 assessed as percent resistant isolates by broth microdilution method
Streptococcus pneumoniae [27] = assay: Antibacterial activity against Streptococcus pneumoniae serotype 22 assessed as percent resistant isolates by broth microdilution method
[28] = Streptococcus pneumoniae, serotype 19A
[29] = Streptococcus pneumoniae, serotype 6A/C
[30] = Streptococcus pneumoniae, serotype 19F
[31] = Streptococcus pneumoniae, serotype 35B

In the case of `CC1(C)S[C@@H]2[C@H](NC(=O)Cc3ccccc3)C(=O)N2[C@H]1C(=O)O` [PENICILLIN G], the MIC90 (Streptococcus pneumoniae [1]) is reported as 4 µg/mL (≈ 12 µM), the MIC90 (Streptococcus pneumoniae [2]) is reported as 1 µg/mL (≈ 2.99 µM) and the MIC90 (Streptococcus pneumoniae [3]) is reported as no more than 0.03 µg/mL. It also gave an MIC90 (Streptococcus pneumoniae [4]) greater than 4 µg/mL, an MIC90 (Streptococcus pneumoniae [5]) of 2 µg/mL (≈ 5.98 µM) and an MIC90 (Streptococcus pneumoniae [6]) of 0.5 µg/mL (≈ 1.5 µM). The MIC90 (Streptococcus pneumoniae [7]) was 0.5 µg/mL (≈ 1.5 µM), the MIC90 (Streptococcus pneumoniae [8]) was no more than 0.03 µg/mL and the MIC90 (Streptococcus pneumoniae [9]) was no more than 0.03 µg/mL. It also gave a percent susceptible isolates (Streptococcus pneumoniae [10]) of 13%, a percent susceptible isolates (Streptococcus pneumoniae [11]) of 23% and a % susceptible isolates (Streptococcus pneumoniae [12]) of 100%. For the same molecule, the percent susceptible isolates (Streptococcus pneumoniae [13]) was 33%, the % susceptible isolates (Streptococcus pneumoniae [14]) was 0% and the percent susceptible isolates (Streptococcus pneumoniae [15]) was 57%. For the same molecule, the percent susceptible isolates (Streptococcus pneumoniae [16]) was 7%, the % susceptible isolates (Streptococcus pneumoniae [17]) was 92% and the % susceptible isolates (Streptococcus pneumoniae [18]) was 100%. For the same molecule, the % resistant isolates (Streptococcus pneumoniae [19]; [28]) was 50%, the % resistant isolates (Streptococcus pneumoniae [20]; [29]) was 8% and the % resistant isolates (Streptococcus pneumoniae [21]) was 0%. It also gave a % resistant isolates (Streptococcus pneumoniae [22]; [30]) of 67%, a % resistant isolates (Streptococcus pneumoniae [23]; [31]) of 100% and a % resistant isolates (Streptococcus pneumoniae [24]) of 0%. For the same molecule, the % resistant isolates (Streptococcus pneumoniae [25]) was 0%, the % resistant isolates (Streptococcus pneumoniae [26]) was 0% and the % resistant isolates (Streptococcus pneumoniae [27]) was 0%.

Work on `C[C@H]1COc2c(N3CCN(C)CC3)c(F)cc3c(=O)c(C(=O)O)cn1c23.C[C@H]1COc2c(N3CCN(C)CC3)c(F)cc3c(=O)c(C(=O)O)cn1c23.O` [LEVOFLOXACIN] yielded an MIC90 (Streptococcus pneumoniae [1]) of 1 µg/mL, an MIC90 (Streptococcus pneumoniae [2]) of 1 µg/mL and an MIC90 (Streptococcus pneumoniae [3]) of 2 µg/mL. It also gave an MIC90 (Streptococcus pneumoniae [4]) of 1 µg/mL, an MIC90 (Streptococcus pneumoniae [5]) of 1 µg/mL and an MIC90 (Streptococcus pneumoniae [6]) of 1 µg/mL. The MIC90 (Streptococcus pneumoniae [7]) was 1 µg/mL, the MIC90 (Streptococcus pneumoniae [9]) was 1 µg/mL and the percent susceptible isolates (Streptococcus pneumoniae [10]) was 100%. It also gave a percent susceptible isolates (Streptococcus pneumoniae [11]) of 100%, a % susceptible isolates (Streptococcus pneumoniae [12]) of 97% and a percent susceptible isolates (Streptococcus pneumoniae [13]) of 100%. For the same molecule, the % susceptible isolates (Streptococcus pneumoniae [14]; [31]) was 100%, the percent susceptible isolates (Streptococcus pneumoniae [15]) was 100% and the percent susceptible isolates (Streptococcus pneumoniae [16]) was 100%. The % susceptible isolates (Streptococcus pneumoniae [17]) was 1%, the % susceptible isolates (Streptococcus pneumoniae [18]) was 100% and the % resistant isolates (Streptococcus pneumoniae [19]) was 0%. The % resistant isolates (Streptococcus pneumoniae [20]) was 0%, the % resistant isolates (Streptococcus pneumoniae [21]) was 0% and the % resistant isolates (Streptococcus pneumoniae [22]) was 0%. It also gave a % resistant isolates (Streptococcus pneumoniae [23]) of 0%, a % resistant isolates (Streptococcus pneumoniae [24]) of 0% and a % resistant isolates (Streptococcus pneumoniae [25]) of 0%. It also gave a % resistant isolates (Streptococcus pneumoniae [26]) of 0% and a % resistant isolates (Streptococcus pneumoniae [27]) of 0%.

Molecule `CC[C@H]1OC(=O)[C@H](C)[C@@H](O[C@H]2C[C@@](C)(OC)[C@@H](O)[C@H](C)O2)[C@H](C)[C@@H](O[C@@H]2O[C@H](C)C[C@H](N(C)C)[C@H]2O)[C@](C)(O)C[C@@H](C)CN(C)[C@H](C)[C@@H](O)[C@]1(C)O` [AZITHROMYCIN] has an MIC90 (Streptococcus pneumoniae [1]) greater than 16 µg/mL, an MIC90 (Streptococcus pneumoniae [2]) of 8 µg/mL (≈ 10.7 µM) and an MIC90 (Streptococcus pneumoniae [3]) of 0.5 µg/mL (≈ 0.668 µM). The MIC90 (Streptococcus pneumoniae [4]) was greater than 16 µg/mL, the MIC90 (Streptococcus pneumoniae [5]) was 16 µg/mL (≈ 21.4 µM) and the MIC90 (Streptococcus pneumoniae [6]) was greater than 16 µg/mL. It also gave an MIC90 (Streptococcus pneumoniae [7]) greater than 16 µg/mL, an MIC90 (Streptococcus pneumoniae [8]) of 16 µg/mL (≈ 21.4 µM) and an MIC90 (Streptococcus pneumoniae [9]) of no more than 0.12 µg/mL. For the same molecule, the percent susceptible isolates (Streptococcus pneumoniae [10]) was 36%, the percent susceptible isolates (Streptococcus pneumoniae [11]) was 31% and the % susceptible isolates (Streptococcus pneumoniae [12]) was 93%. It also gave a percent susceptible isolates (Streptococcus pneumoniae [13]) of 29%, a % susceptible isolates (Streptococcus pneumoniae [14]; [31]) of 73% and a percent susceptible isolates (Streptococcus pneumoniae [15]) of 79%. It also gave a percent susceptible isolates (Streptococcus pneumoniae [16]) of 7%, a % susceptible isolates (Streptococcus pneumoniae [17]) of 42% and a % susceptible isolates (Streptococcus pneumoniae [18]) of 100%. It also gave a % resistant isolates (Streptococcus pneumoniae [19]; [28]) of 64%, a % resistant isolates (Streptococcus pneumoniae [20]; [29]) of 69% and a % resistant isolates (Streptococcus pneumoniae [21]; Streptococcus pneumoniae, serotype 3) of 4%. For the same molecule, the % resistant isolates (Streptococcus pneumoniae [22]; [30]) was 71%, the % resistant isolates (Streptococcus pneumoniae [23]; [31]) was 27% and the % resistant isolates (Streptococcus pneumoniae [24]) was 0%. For the same molecule, the % resistant isolates (Streptococcus pneumoniae [25]; Streptococcus pneumoniae, serotype 15A) was 93%, the % resistant isolates (Streptococcus pneumoniae [26]) was 0% and the % resistant isolates (Streptococcus pneumoniae [27]) was 0%.

`CC[C@H]1OC(=O)[C@H](C)C(=O)[C@H](C)[C@@H](O[C@@H]2O[C@H](C)C[C@H](N(C)C)[C@H]2O)[C@](C)(OC)C[C@@H](C)C(=O)[C@H](C)[C@H]2N(CCCCn3cnc(-c4cccnc4)c3)C(=O)O[C@]12C` [TELITHROMYCIN] gave an MIC90 (Streptococcus pneumoniae [1]) of 1 µg/mL (≈ 1.23 µM), an MIC90 (Streptococcus pneumoniae [2]) of 0.25 µg/mL (≈ 0.308 µM) and an MIC90 (Streptococcus pneumoniae [3]) of no more than 0.12 µg/mL. It also gave an MIC90 (Streptococcus pneumoniae [4]) of 1 µg/mL (≈ 1.23 µM), an MIC90 (Streptococcus pneumoniae [5]) of 0.5 µg/mL (≈ 0.616 µM) and an MIC90 (Streptococcus pneumoniae [6]) of no more than 0.12 µg/mL. The MIC90 (Streptococcus pneumoniae [7]) was no more than 0.12 µg/mL, the MIC90 (Streptococcus pneumoniae [9]) was no more than 0.12 µg/mL and the percent susceptible isolates (Streptococcus pneumoniae [10]) was 99%. For the same molecule, the percent susceptible isolates (Streptococcus pneumoniae [11]) was 100%, the % susceptible isolates (Streptococcus pneumoniae [12]) was 100% and the percent susceptible isolates (Streptococcus pneumoniae [13]) was 100%. It also gave a % susceptible isolates (Streptococcus pneumoniae [14]; [31]) of 100%, a percent susceptible isolates (Streptococcus pneumoniae [15]) of 100% and a percent susceptible isolates (Streptococcus pneumoniae [16]) of 100%. It also gave a % susceptible isolates (Streptococcus pneumoniae [17]) of 0.25%, a % susceptible isolates (Streptococcus pneumoniae [18]) of 100% and a % resistant isolates (Streptococcus pneumoniae [19]) of 0%. It also gave a % resistant isolates (Streptococcus pneumoniae [20]) of 0%, a % resistant isolates (Streptococcus pneumoniae [21]) of 0% and a % resistant isolates (Streptococcus pneumoniae [22]) of 0%. It also gave a % resistant isolates (Streptococcus pneumoniae [23]) of 0%, a % resistant isolates (Streptococcus pneumoniae [24]) of 0% and a % resistant isolates (Streptococcus pneumoniae [25]) of 0%. The % resistant isolates (Streptococcus pneumoniae [26]) was 0% and the % resistant isolates (Streptococcus pneumoniae [27]) was 0%.
